Assays:
Assay type in all cases: in vivo
[1] = system: Renal hypertensive awaken rat; assay: Anti-hypertensive activity in the renal hypertensive awaken rat (Grollman method), arterial pressure by bloodless method; conditions: oral; for ED20: read-out: ED20 orally
Description: Some illustrative results obtained in the renal hypertensive awaken rat according to the method of A. Grollman (Proc. Soc. Exptl. Biol. Med., 57, 102, 1944) are given in Table 1. The products were administered orally to groups of 4 rats for each dosage level. The arterial pressure was measured by bloodless method immediately before and at the 1st, 3rd, 5th, 7th, 12th, 24th, 36th, 48th and 60th hour after administration.
x ED20 = dose producing a 20% fall in pressure compared to the basal

Mouse = assay: Acute toxicity in the mouse, intraperitoneal (approximate LD50); conditions: 6 dosage levels
Description: (§1) The evaluation of the acute toxicity was carried out in the mouse administering the products by the intraperitoneal route at 6 different dosage levels. The approximate LD50 was determined thereafter.

[2] = as above; conditions: in vivo, ip, 6 dosage levels, read-out: Mouse LD50 i.p.
Description: as §1

[3] = dose producing a 20% fall in pressure compared to the basal value

SMILES | Time in hours of half effect appearance [1] | Time in hours of maximum effect appearance [1] | ED20 orally [1, 3] | Mouse LD50 i.p. (Mouse) | ED20 [1, 3] | LD50 [2]
CCOC(=O)NNc1nncc2ccccc12 [Binazin, reference compound] | 20 h | 3 h | 7 mg/kg | 500 mg/kg | – | –
CCOC(=O)NNc1ccc(N(C)CC(C)O)nn1 (centres unmarked) [Example 3, 3-(2-Carbethoxyhydrazino)-6-[N-(2-hydroxypropyl)methylamino]-pyridazine] | 36 h | 5 h | – | – | 1 mg/kg | 700 mg/kg
C=CCN(CC=C)c1ccc(NNC(=O)OCC)nn1 [Example 5, 3-(2-Carbethoxyhydrazino)-6-diallylaminopyridazine] | 48 h | 5 h | – | – | 1 mg/kg | 300 mg/kg
CCOC(=O)NNc1ccc(N(CC)CC(C)O)nn1 (centres unmarked) [Example 6, 3-(2-Carbethoxyhydrazino)-6-[N-(2-hydroxypropyl)ethylamino]-pyridazine] | 36 h | 5 h | – | – | 1 mg/kg | 700 mg/kg
NNc1nncc2ccccc12 [Hydralazine, reference compound] | 5 h | 1 h | – | – | 3 mg/kg | 100 mg/kg
